The record followed here is patent publication US11883458B2, “Herb medicine composition for alleviating or treating asthma, and oriental pharmacopuncture solution containing same and injection containing same” (priority 2019, dated 2024).

The assay has as its system asthma-induced BALB/c mice (ovalbumin). Description: Ovalbumin-induced asthma in BALB/c mice: white blood cell, eosinophil and IgE measurement. Type of assay: in vivo. As to conditions: asthma-induced female BALB/c mice; injected twice a week for 4 weeks; mean of 3 mice; mouse blood. The method, then:
Ovalbumin was administered to BALB/c mice to induce asthma. The total white blood cell (WBC) count, eosinophil count, and […] in bronchoalveolar lavage fluid (BALF) were measured.
As experimental animals, BALB/c mice (supplier: Samtako Korea), which have been widely used in asthma tests, were used. Female BALB/c mice were used and were 6 weeks old at the time of acquisition and 7 weeks old at the time of the experiment. After acquisition, the mice were acclimatized in an animal test room for 6 days, and observed at least once a day. During the acclimatization period, the mice were distinguished by skin mark using a red oil magic pen. During the administration and observation period, the mice were distinguished by skin mark using a black oil magic pen. An individual identification card was attached to a breeding cage. The mice were housed in a breeding area under the condition of a temperature of 23±3° C., a relative humidity of 55±15%, a ventilation frequency of 10 to 20 times/hr, an illumination time of 12 hours, and an illuminance of 150 to 300 Lux. During the period of acclimatization and administration, at least four mice were housed in each polycarbonate breeding cage containing an appropriate amount of rug. During the acclimatization period, mice determined to be healthy were weighed and ranked according to weight. The mice were distributed into groups so that the mean weights of each group were equal.
As an asthma inducer, refrigerated ovalbumin (OVA) (catalog No.: A5503, supplier: Sigma Aldrich, Louis, Missouri, USA) was used. As an adjuvant, refrigerated aluminum hydroxide (Alum) (catalog No.: 77161, supplier: Thermo Fisher Scientific Inc, Waltham, Massachussets, USA) was used. […]
After 4 weeks, the measurement of the white blood cell (WBC) count, eosinophil count, and IgE was performed using mouse blood. The mean values thereof were calculated, and the results are illustrated in Table 3 below.

In the case of `C[C@@H]1C[C@H]2[C@@H]3CCC4=CC(=O)C=C[C@]4(C)[C@@]3(F)[C@@H](O)C[C@]2(C)[C@@]1(O)C(=O)CO` [Positive control, dexamethasone], the Eosinophil count is recorded as 1.41 X10^2 cells/μl, the IgE came out at 23.45 µg/mL and the WBC count was 39.83 X10^3 cells/μl.
